Experiments:
[1] = Antagonist activity at hyperpolarized T-type calcium channel by FLIPR assay; format: functional
[2] = Antagonist activity at depolarized T-type calcium channel by FLIPR assay; format: functional
[3] = target: T1, PXR (NR1I2) (Homo sapiens, UniProt O75469); assay: Activity at PXR at 10 uM relative to rifampicin; conditions: read-out: Activity
T1 sequence (O75469 whole entry): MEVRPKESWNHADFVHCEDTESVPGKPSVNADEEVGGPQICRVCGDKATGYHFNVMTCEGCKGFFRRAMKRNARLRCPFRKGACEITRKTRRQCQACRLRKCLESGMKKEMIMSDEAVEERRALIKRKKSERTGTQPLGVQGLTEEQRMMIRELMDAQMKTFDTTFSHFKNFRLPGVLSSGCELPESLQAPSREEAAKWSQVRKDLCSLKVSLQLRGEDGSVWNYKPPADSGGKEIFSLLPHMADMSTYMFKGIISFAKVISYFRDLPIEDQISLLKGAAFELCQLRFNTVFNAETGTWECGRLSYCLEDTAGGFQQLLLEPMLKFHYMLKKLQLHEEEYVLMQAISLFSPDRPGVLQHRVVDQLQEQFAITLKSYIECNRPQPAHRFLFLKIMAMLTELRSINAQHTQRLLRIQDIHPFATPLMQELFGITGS

[4] = Antagonist activity at L-type calcium channel by FLIPR assay; format: functional
[5] = system: P-gp; assay: Permeability across pig LLC-PK1 cells expressing P-gp; format: ADME, cell-based, Sus scrofa
[6] = Binding affinity to T-type calcium channel
[7] = system: LLC-PK1; assay: Ratio of permeability from basolateral to apical side to apical to basolateral side of pig LLC-PK1 cells expressing P-gp; format: ADME, cell-based, Sus scrofa
[8] = Plasma protein binding in dog assessed as fraction unbound at 5 uM; format: ADME, cell-free, Canis lupus familiaris
[9] = system: Rattus norvegicus; assay: Effect on sleep wake cycle in po dosed rat assessed as increase in delta sleep administered daily 30 mins before inactive phase measured 0.5 to 2 hrs post administration; format: functional, organism-based
[10] = Half life in rat at 5 mg/kg, po; format: ADME, organism-based; design: dose 5 mg/kg, route oral; conditions: in vivo
[11] = target: T2, Voltage-dependent T-type calcium channel subunit alpha-1I (Homo sapiens, UniProt Q9P0X4); assay: Antagonist activity at Cav3.3 at -80 mV holding potential by whole cell patch clamp analysis; format: functional
[12] = system: Liver microsomes; assay: Covalent protein binding in human liver microsomes assessed per mg protein at 10 uM after 60 mins in presence of NADPH by NMR spectroscopy; format: ADME, Microsome; conditions: 1 h
[13] = Bioavailability in rhesus monkey at 10 mg/kg; format: ADME, organism-based, Macaca mulatta; conditions: in vivo
[14] = Bioavailability in rat at 10 mg/kg; format: ADME, organism-based; conditions: in vivo
[15] = Cmax in human at 20 mg, po; format: ADME, organism-based; design: dose 20 mg, route oral; conditions: in vivo
[16] = Systemic clearance in rhesus monkey at 10 mg/kg; format: ADME, organism-based, Macaca mulatta; design: dose 10 mg/kg; conditions: in vivo
[17] = target: hERG (KCNH2) (Homo sapiens, UniProt Q12809); assay: Inhibition of human ERG at 30 uM
[18] = system: Rattus norvegicus; assay: Anticonvulsant activity in WAG/Rij rat assessed as inhibition of seizure at 3 mg/kg, po measured after 4 hrs; format: functional
[19] = Inhibition of Sodium channel; conditions: concentration not given here
[20] = Plasma protein binding in rat assessed as fraction unbound at 5 uM; format: ADME, cell-free
[21] = Half life in rat at 10 mg/kg; format: ADME, organism-based; design: dose 10 mg/kg; conditions: in vivo
[22] = target: Voltage-gated inwardly rectifying potassium channel KCNH2 (Homo sapiens, UniProt Q12809); assay: Displacement of […] from human ERG in HEK293 cells; format: cell-based
[23] = system: Rattus norvegicus; assay: Effect on sleep wake cycle in rat assessed as suppression of active wake time at 5 mg/kg, po administered daily 30 mins before inactive phase; format: functional
[24] = Half life in rhesus monkey at 10 mg/kg; format: ADME, organism-based, Macaca mulatta; design: dose 10 mg/kg; conditions: in vivo
[25] = Bioavailability in dog at 10 mg/kg; format: ADME, organism-based, Canis lupus familiaris; conditions: in vivo
[26] = Volume of distribution at steady state in rhesus monkey at 10 mg/kg; format: ADME, organism-based, Macaca mulatta; design: dose 10 mg/kg; conditions: in vivo, read-out: Vdss
[27] = Systemic clearance in rat at 10 mg/kg; format: ADME, organism-based; design: dose 10 mg/kg; conditions: in vivo
[28] = Volume of distribution at steady state in rat at 10 mg/kg; format: ADME, organism-based; design: dose 10 mg/kg; conditions: in vivo, read-out: Vdss
[29] = Plasma protein binding in human assessed as fraction unbound at 5 uM; format: ADME, cell-free
[30] = Inhibition of L-type calcium channel at 30 uM
[31] = Half life in dog at 10 mg/kg; format: ADME, organism-based, Canis lupus familiaris; design: dose 10 mg/kg; conditions: in vivo
[32] = Apparent terminal half life in human at 20 mg, po; format: ADME, organism-based; conditions: in vivo, read-out: betat1/2(app) (converted)
[33] = Systemic clearance in dog at 10 mg/kg; format: ADME, organism-based, Canis lupus familiaris; design: dose 10 mg/kg; conditions: in vivo
[34] = Ratio of IC50 for hyperpolarized T-type calcium channel to IC50 for depolarized T-type calcium channel
[35] = target: T2, Voltage-dependent T-type calcium channel subunit alpha-1I; assay: Antagonist activity at Cav3.3 at -100 mV holding potential by whole cell patch clamp analysis; format: functional
[36] = Volume of distribution at steady state in dog at 10 mg/kg; format: ADME, organism-based, Canis lupus familiaris; design: dose 10 mg/kg; conditions: in vivo, read-out: Vdss
[37] = Plasma protein binding in rhesus monkey assessed as fraction unbound at 5 uM; format: ADME, Macaca mulatta
[38] = target: Voltage-gated potassium channel, IKs; KCNQ1(Kv7.1)/KCNE1(MinK) (Homo sapiens, UniProt P51787+P15382); assay: Inhibition of IKs; format: protein-complex assay
[39] = system: Liver microsomes; assay: Covalent protein binding in human liver microsomes assessed as GSH adduct formation measured per mg protein at 10 uM after 60 mins in presence of NADPH by NMR spectroscopy; format: ADME, Microsome; conditions: 1 h

Chain of Voltage-gated inwardly rectifying potassium channel KCNH2 (Q12809 whole entry): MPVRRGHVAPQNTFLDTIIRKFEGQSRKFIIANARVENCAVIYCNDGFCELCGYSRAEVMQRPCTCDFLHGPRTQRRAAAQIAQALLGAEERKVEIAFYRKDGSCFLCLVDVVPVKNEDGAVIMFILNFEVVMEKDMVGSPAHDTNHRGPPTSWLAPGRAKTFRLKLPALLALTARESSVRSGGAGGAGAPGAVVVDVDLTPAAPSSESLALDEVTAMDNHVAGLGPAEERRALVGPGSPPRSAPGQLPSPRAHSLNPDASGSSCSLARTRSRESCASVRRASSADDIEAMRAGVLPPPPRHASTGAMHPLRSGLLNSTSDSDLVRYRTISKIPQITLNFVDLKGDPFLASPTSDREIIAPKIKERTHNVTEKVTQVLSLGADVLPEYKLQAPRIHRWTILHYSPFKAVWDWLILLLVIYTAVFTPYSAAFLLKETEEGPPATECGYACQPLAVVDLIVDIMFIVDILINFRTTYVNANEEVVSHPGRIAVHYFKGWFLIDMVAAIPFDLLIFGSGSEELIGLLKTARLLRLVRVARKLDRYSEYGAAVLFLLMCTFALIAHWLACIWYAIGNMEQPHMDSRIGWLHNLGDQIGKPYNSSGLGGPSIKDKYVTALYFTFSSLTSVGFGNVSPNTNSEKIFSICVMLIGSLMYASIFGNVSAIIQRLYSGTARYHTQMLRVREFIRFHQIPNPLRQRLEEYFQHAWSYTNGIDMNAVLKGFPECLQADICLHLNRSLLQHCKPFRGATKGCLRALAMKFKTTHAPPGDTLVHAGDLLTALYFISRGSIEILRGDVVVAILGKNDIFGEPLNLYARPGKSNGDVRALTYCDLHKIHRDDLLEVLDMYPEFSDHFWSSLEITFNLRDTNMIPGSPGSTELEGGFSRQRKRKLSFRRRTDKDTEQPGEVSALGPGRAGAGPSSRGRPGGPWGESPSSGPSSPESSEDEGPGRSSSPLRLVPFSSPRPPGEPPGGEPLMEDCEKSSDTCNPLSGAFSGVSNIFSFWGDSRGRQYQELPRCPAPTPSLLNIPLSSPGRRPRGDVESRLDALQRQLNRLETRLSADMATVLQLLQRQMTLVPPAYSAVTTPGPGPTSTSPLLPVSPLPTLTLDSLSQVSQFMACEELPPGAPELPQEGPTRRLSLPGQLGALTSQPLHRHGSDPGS
T2 sequence (Q9P0X4 whole entry): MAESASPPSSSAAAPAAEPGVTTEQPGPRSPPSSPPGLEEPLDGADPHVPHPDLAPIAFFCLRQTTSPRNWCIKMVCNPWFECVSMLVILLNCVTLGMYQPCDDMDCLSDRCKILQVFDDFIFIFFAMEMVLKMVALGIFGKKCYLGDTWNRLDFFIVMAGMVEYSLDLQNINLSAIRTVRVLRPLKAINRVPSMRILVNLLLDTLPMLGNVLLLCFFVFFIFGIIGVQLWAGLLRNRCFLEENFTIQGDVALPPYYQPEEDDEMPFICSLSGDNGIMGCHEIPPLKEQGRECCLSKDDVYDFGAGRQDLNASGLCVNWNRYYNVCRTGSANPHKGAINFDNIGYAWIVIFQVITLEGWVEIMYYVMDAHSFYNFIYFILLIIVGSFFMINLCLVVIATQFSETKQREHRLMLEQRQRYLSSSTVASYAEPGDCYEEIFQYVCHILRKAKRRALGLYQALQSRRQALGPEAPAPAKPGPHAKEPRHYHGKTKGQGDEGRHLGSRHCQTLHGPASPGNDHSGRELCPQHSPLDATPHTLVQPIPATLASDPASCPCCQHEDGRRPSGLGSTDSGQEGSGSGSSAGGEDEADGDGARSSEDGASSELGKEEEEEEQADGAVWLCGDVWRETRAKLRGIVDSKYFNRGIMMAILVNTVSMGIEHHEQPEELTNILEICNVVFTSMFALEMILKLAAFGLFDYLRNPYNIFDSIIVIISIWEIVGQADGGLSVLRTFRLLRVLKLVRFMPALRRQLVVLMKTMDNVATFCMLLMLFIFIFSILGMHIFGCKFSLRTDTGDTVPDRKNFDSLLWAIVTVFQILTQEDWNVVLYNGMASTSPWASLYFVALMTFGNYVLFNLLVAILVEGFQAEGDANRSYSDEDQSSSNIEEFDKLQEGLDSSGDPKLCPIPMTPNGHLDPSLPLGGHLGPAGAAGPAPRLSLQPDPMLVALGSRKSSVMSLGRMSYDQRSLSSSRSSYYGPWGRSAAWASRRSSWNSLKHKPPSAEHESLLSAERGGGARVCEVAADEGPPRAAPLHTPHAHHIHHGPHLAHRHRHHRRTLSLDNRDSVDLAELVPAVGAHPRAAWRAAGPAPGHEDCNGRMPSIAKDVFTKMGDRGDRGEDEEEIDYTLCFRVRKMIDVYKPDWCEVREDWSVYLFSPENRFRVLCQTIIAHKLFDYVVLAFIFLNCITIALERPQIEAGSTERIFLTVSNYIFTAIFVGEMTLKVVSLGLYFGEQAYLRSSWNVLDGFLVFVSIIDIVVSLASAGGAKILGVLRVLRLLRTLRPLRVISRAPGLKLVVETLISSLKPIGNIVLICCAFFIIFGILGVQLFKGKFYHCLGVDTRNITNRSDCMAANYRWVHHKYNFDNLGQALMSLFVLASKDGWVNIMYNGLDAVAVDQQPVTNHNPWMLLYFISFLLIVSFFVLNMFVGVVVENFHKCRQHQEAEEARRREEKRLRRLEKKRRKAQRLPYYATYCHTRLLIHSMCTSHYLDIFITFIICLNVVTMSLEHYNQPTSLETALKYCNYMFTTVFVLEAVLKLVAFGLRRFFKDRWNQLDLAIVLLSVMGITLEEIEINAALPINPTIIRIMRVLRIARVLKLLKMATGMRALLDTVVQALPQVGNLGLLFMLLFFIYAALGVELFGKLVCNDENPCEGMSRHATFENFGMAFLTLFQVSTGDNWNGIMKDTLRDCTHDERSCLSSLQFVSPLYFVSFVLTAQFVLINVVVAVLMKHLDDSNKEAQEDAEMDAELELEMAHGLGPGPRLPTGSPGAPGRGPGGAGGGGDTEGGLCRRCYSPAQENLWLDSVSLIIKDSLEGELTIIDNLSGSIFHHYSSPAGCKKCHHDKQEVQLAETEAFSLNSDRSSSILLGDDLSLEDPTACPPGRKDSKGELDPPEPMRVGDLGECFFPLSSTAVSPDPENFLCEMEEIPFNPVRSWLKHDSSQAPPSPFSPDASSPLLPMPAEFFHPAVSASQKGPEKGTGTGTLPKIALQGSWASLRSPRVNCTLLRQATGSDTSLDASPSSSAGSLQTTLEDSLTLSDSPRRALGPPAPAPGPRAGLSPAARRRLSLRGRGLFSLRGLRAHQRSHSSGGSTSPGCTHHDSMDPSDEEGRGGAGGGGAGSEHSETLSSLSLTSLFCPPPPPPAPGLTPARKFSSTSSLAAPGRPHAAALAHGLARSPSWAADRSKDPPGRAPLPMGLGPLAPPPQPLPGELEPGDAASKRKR
Chain of hERG (KCNH2) (Q12809 whole entry): as the sequence (Q12809 whole entry) above

SMILES	IC50 [1] [nM]	IC50 [2] [nM]	activity at 10 µM [3] [%]	IC50 [4] [nM]	Papp [5] [×10⁻⁶ cm/s]	Ki [6] [nM]	Ratio [7]	fraction unbound at 5 µM [8]	bioavailability [14] [%]	fraction unbound at 5 µM [20]	half-life [21] [min]	bioavailability [25] [%]	clearance [27] [mL/min/kg]	Vd [28] [L/kg]	half-life [31] [min]	clearance [33] [mL/min/kg]	Ratio IC50 [34]	Vd [36] [L/kg]	inhibition in vivo at 3 mg/kg [18] [%]	IC50 [22] [nM]	other results
C[C@@H](NC(=O)Cc1ccc(N2CC[C@H](F)C2)cc1)c1ccc(OCC(F)(F)F)cn1	249	3.7	31	> 10000	41	0.3															
C[C@@H](NC(=O)Cc1ccc(-c2cnn3ncccc23)cc1)c1ccc(OCC(F)(F)F)cn1	397	5.4	0	> 10000	38		1.3										> 80		85	> 30000	PB [39]: 244 pmol
C[C@@H](NC(=O)Cc1ccc(C2CC2)cc1)c1ccc(OCC(F)(F)F)cn1	384	9.4	17	> 10000	45	1.2	0.7										> 80		87	> 10000	

Continued, in another order:

IC50 [1] [nM]	IC50 [2] [nM]	activity at 10 µM [3] [%]	IC50 [4] [nM]	Papp [5] [×10⁻⁶ cm/s]	Ki [6] [nM]	Ratio [7]	fraction unbound at 5 µM [8]	bioavailability [14] [%]	fraction unbound at 5 µM [20]	half-life [21] [min]	bioavailability [25] [%]	clearance [27] [mL/min/kg]	Vd [28] [L/kg]	half-life [31] [min]	clearance [33] [mL/min/kg]	Ratio IC50 [34]	Vd [36] [L/kg]	SMILES	inhibition in vivo at 3 mg/kg [18] [%]	IC50 [22] [nM]	other results
1920	31.3	8	> 10000	44	5.5	1.3	0.155	71	0.123	14.4	23	30.3	0.59	48.6	11.8	> 80	0.36	Cc1nccnc1-c1ccc(CC(=O)N[C@H](C)c2ccc(OCC(F)(F)F)cn2)cc1	87	> 30000	Activity [9]: Dose-dependent effect; half-life [10]: 14 min; IC50 [11]: 264 nM; PB [12]: 8 pmol; bioavailability [13]: 5%; Cmax [15]: 1820 nM; clearance [16]: 19.3 mL/min/kg; inhibition at 30 µM [17]: 41%; inhibition [19]: 20%; Time [23]: 1.5 h; half-life [24]: 31.8 min; Vd [26]: 0.74 L/kg; fraction unbound at 5 µM [29]: 0.032; inhibition [30]: 12%; half-life [32]: 180 min; IC50 [35]: 12000 nM; fraction unbound at 5 µM [37]: 0.146; inhibition (INH) [38]: Not Active
206	5.3	7	> 10000	35	0.2	1.1	0.016	100	0.052	24	50	35	1.1	66	3.6	> 80	0.3	Cc1ncoc1-c1ccc(CC(=O)N[C@H](C)c2ccc(OCC(F)(F)F)cn2)cc1	72	> 30000	PB [39]: 1558 pmol
